The record followed here is the METLIN SMRT retention time set (Domingo-Almenara et al. 2019).

The data set can be described thus: gradient 5% acetonitrile 3 min, to 50% in 2 min, to 85% in 15 min, held 3 min, 100 µL/min. Conditions: column: Zorbax Extend-C18 2.1 x 50 mm; eluents: water / acetonitrile, 0.1% formic acid. In a few lines:
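Retention time was recorded from adduct peaks, which were picked computationally and each inspected manually. Pure standards ran in mixtures of ~100 molecules on HPLC coupled to a quadrupole time-of-flight mass spectrometer, in positive and negative ionization mode, through a Zorbax Extend-C18 column (2.1 × 50 mm, 1.8 μm) at 100 μL/min. Eluents were water and acetonitrile, each with 0.1% formic acid.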
`CCS(=O)(=O)Nc1ccc(C2(C(=O)NCc3cccc(F)c3)CCCCC2)cc1` had an RP-LC retention time of 933 s.

Regarding `O=C(c1ccc(F)c(F)c1)N1CCCC(c2ccnc(-c3cccc(F)c3)n2)C1` (centres undefined), the RP-LC retention time was found to be 1120 s.

The compound `O=C(NC1CCCCC1)N1CC(c2nnc(-c3ccncc3)o2)C2(CCOCC2)C1` (centres undefined) registered an RP-LC retention time of 621 s.

The compound `CCn1cnc2ccc(-c3noc(Cc4ccc(OC)cc4)n3)cc21` yielded an RP-LC retention time of 728 s.

Turning to `CCOc1ccc(C(Nc2ccccn2)c2ccc3ccc(C)nc3c2O)cc1C` (centres undefined), the RP-LC retention time was 811 s.

As to `CCn1cc(CN2CCC(C(=O)NC3CCCCC3)CC2)c2cc(OC)ccc21`, the RP-LC retention time stood at 688 s.

The compound `CCSc1nnc(-c2nn(C)c3c2CN(S(=O)(=O)Cc2ccccc2F)CC3)n1CC` registered an RP-LC retention time of 905 s.

As to `O=C(C1CC(=O)N(c2n[nH]c3ccccc23)C1)N1CCC(c2noc3cc(F)ccc23)CC1` (centres undefined), the RP-LC retention time amounted to 766 s.

As to `O=C1CC(c2nc(-c3ccc(C(F)(F)F)cc3)no2)CN1c1ccc2c(c1)OCO2` (centres undefined), the RP-LC retention time is 1070 s.

As for `Cc1ccc(S(=O)(=O)N2CCN(CCc3cn(C)c4ncccc34)CC2)cc1C`, the RP-LC retention time came out at 656 s.

Consider `Cc1oc2ccn(Cc3ccccc3F)c(=O)c2c1C(=O)NC1CCCCC1`, for which the RP-LC retention time stood at 1160 s.

`Cn1c(=O)c2c(-c3ccc(Cl)cc3)c(C#N)c(N)nc2n(C)c1=O` came in with an RP-LC retention time of 814 s.

The compound `CCc1nnc([C@@H]2CC(F)(F)CN2C(=O)CCn2nc(C)cc2C)o1` had an RP-LC retention time of 666 s.

Compound `CN1CCN(C(CNS(=O)(=O)c2ccccc2F)c2ccsc2)CC1` (centres undefined) came in with an RP-LC retention time of 570 s.

In the case of `CC1CCN(C(=O)c2ccc(Cn3cncn3)cc2)CC1`, the RP-LC retention time amounted to 672 s.

The compound `CSc1ncccc1C(=O)Nc1ccc2c(c1)CCC(=O)N2` came in with an RP-LC retention time of 638 s.

Turning to `Fc1cccc(N2CC3(CCN(Cc4ccncc4F)CC3)C2c2ccccc2)c1` (centres undefined), the RP-LC retention time turned out to be 650 s.

`CC(CCNC(=O)c1ccc(NC(=O)C2=CSCCO2)cc1)N1CCCC1` (centres undefined) yielded an RP-LC retention time of 600 s.

As to `O=C(NC1CC1)c1ccc2ncnc(N3CCCCC3)c2c1`, the RP-LC retention time was 580 s.

In the case of `COC(=O)c1ncn2c1C(=O)N(Cc1ccccc1)C(C)(C(=O)NCc1ccccc1)C2` (centres undefined), the RP-LC retention time turned out to be 715 s.

`CC(C)C(=O)Nc1ccc(C2(C(=O)N(C)Cc3ccccc3)CCCCC2)cc1` came in with an RP-LC retention time of 1080 s.

For the compound `CC(C)N(CCCNC(=O)c1cc2sccc2n1C)Cc1ccccc1`, the RP-LC retention time amounted to 682 s.

Consider `Cc1cc(C)cc(N2CCn3c2nc2c3c(=O)n(CC(=O)O)c(=O)n2C)c1`, for which the RP-LC retention time was found to be 784 s.

The compound `O=C(Cc1ccc(Br)cc1)NC1CCN(c2cc(-c3ccc(F)cc3)[nH]n2)C1` (centres undefined) gave an RP-LC retention time of 780 s.

In turn, `CC(C)c1nnc2n1CCN(C(=O)c1cc(-c3cccs3)[nH]n1)C2` returned an RP-LC retention time of 628 s.

The compound `CC(C)NC(=O)c1ccc(OCC2CCN(C(=O)CC(C)(C)C)CC2)cc1` displayed an RP-LC retention time of 875 s.

`COc1ccc(NC(=O)N2CC=C(c3cn(C(C)C)c4ncccc34)CC2)cc1F` gave an RP-LC retention time of 920 s.

For `O=C(COc1ccccc1)Nc1ccccc1-c1nc2ccccc2s1`, the RP-LC retention time is 1320 s.

`Cc1noc(C2(NC(=O)c3cc(F)cc(F)c3)CCCCC2)n1`: the RP-LC retention time was 916 s.

For `O=C(Nc1ccc(F)c(Cl)c1)C1CCCN(c2ccnc(-c3ccc(F)cc3)n2)C1` (centres undefined), the RP-LC retention time amounted to 780 s.

For `O=C(N[C@H]1C[C@@H]2C[C@H]1N(C(=O)c1ccccc1Cl)C2)c1cccnc1`, the RP-LC retention time amounted to 602 s.

Regarding `CC(C)n1cnc(S(=O)(=O)N2CCC(C(=O)NCc3ccccc3Cl)CC2)c1`, the RP-LC retention time came to 744 s.

As to `COC(=O)c1c(NCc2ccccc2C)c2cccc(Cl)c2[nH]c1=O`, the RP-LC retention time is 859 s.

As for `CCOC(=O)C1CCN(Cc2cn3c(-c4ccc(OC)cc4)nnc3s2)CC1`, the RP-LC retention time was found to be 563 s.

Compound `Cc1nn2c(N3CCN(c4ccccn4)CC3)cc(C(C)C)nc2c1-c1ccccc1` returned an RP-LC retention time of 823 s.

Compound `CN1c2cc(Cl)ccc2C(=O)NC12CCN(C(=O)NCc1ccccc1)CC2` showed an RP-LC retention time of 795 s.

In the case of `Cc1ccn2cc(CC(=O)Nc3ccc(F)cc3)nc2c1`, the RP-LC retention time came out at 595 s.

For the compound `O=C(c1c(F)cccc1Cl)N1CCN(c2nccn2-c2ccccc2F)CC1`, the RP-LC retention time was found to be 574 s.

`CCCCn1c(=O)c2ccccc2n(Cc2nc(-c3cccc(C(F)(F)F)c3)no2)c1=O` returned an RP-LC retention time of 1240 s.

`O=C(Cn1nc2c(N3CCSCC3)nccn2c1=O)NC1CCCC1` returned an RP-LC retention time of 722 s.

The compound `CCCn1cc(S(=O)(=O)Nc2ccc(Cl)cc2F)c2cccnc21` gave an RP-LC retention time of 980 s.

Turning to `COc1cc(Br)c(C2C(C(=O)N3CCOCC3)=C(C)NC3=C2C(=O)CCC3)cc1OC` (centres undefined), the RP-LC retention time was 618 s.

On to `Cc1cc2nc(CSc3nnc(-c4ccc(Cl)cc4)o3)cc(=O)n2o1`, for which the RP-LC retention time was 786 s.

With `Cc1ccc(N2C(=O)CCS2(=O)=O)cc1S(=O)(=O)N1CCN(c2ccccn2)CC1`, the RP-LC retention time was found to be 635 s.

In the case of `O=C1CSCc2nc3ccccc3n21`, the RP-LC retention time turned out to be 634 s.

In the case of `CC(C)(C)NC(=O)N1CCCC1c1noc(COc2ccc(F)cc2)n1` (centres undefined), the RP-LC retention time came to 894 s.

Compound `O=C(Cc1cccc(Cl)c1)N1CC2CN(S(=O)(=O)c3cccc(F)c3)CC(C1)O2` showed an RP-LC retention time of 900 s.

`Cc1ccc2nc(NC(=O)Cc3csc4nc(-c5ccc(C)c(C)c5)cn34)sc2c1`: the RP-LC retention time was determined as 953 s.

For `COc1cc([C@@H]2c3cc4c(cc3[C@H](O)[C@@H](CO)[C@@H]2C(=O)NCC2CC2)OCO4)cc(OC)c1OC`, the RP-LC retention time was determined as 666 s.

Compound `Cc1ccc(CNC(=O)C2CCN(S(=O)(=O)c3cc(-c4noc(C5CC5)n4)sc3C)CC2)o1` yielded an RP-LC retention time of 1010 s.

In turn, `COCc1cn(C2CN(C(=O)c3sc(C)nc3C)C2)nn1` displayed an RP-LC retention time of 589 s.

With `CC(C)Oc1ccc(-c2noc(CN3N=NC4C(=O)N(c5ccccc5)C(=O)C43)n2)cc1` (centres undefined), the RP-LC retention time was 1020 s.

`CCOc1ccccc1N1CCN(C(=O)c2sc3ncccc3c2-n2cccc2)CC1` yielded an RP-LC retention time of 1040 s.

`CC(C)N1C(=O)c2cccnc2Sc2cc(C(=O)NC3CC3)ccc21` returned an RP-LC retention time of 702 s.

In turn, `CN(C)C(=O)c1cn(C2CN(C(=O)c3ccc(C#N)cc3)C2)nn1` returned an RP-LC retention time of 624 s.

Take `COC(=O)c1ccccc1NC(=O)CSc1cc(N2CCN(c3ccccc3OC)CC2)ncn1`: the RP-LC retention time came out at 905 s.

The compound `O=C(Cn1nc2n(c1=O)CCCC2)NCc1ccccc1` registered an RP-LC retention time of 640 s.

Regarding `Cc1ccc(NC(=O)N2CCN(CCn3cnc4cccnc43)CC2)c(C)c1`, the RP-LC retention time was 594 s.

Compound `COc1ccc(C2(CNC(=O)c3cc(-c4ccccc4)n[nH]3)CCOCC2)cc1` showed an RP-LC retention time of 749 s.

The compound `C=CCNC(=O)Cc1c(C)n(C)c2nc(-c3ccccc3)nn2c1=O` had an RP-LC retention time of 663 s.

For `Cc1cc(C2CCCN2C(=O)Nc2ccc(C)c(Cl)c2)no1` (centres undefined), the RP-LC retention time stood at 906 s.

Regarding `COC(=O)c1ccccc1NC(=O)c1ccc(-n2ccnc2)nn1`, the RP-LC retention time stood at 666 s.

`CCn1c(=O)sc2cc(S(=O)(=O)N3CCC(C(=O)NCc4ccc(C)cc4)CC3)ccc21` yielded an RP-LC retention time of 932 s.

As for `Cc1sc(NC(=O)C2CC2)nc1-c1ccc2c(c1)N(C)C(=O)CO2`, the RP-LC retention time came out at 811 s.

As to `COc1ccc(N2CC(c3noc(-c4ccc(OC)c(OC)c4)n3)CC2=O)cc1` (centres undefined), the RP-LC retention time was 839 s.

`CCC(=O)Oc1ccc(N(C)C2=NS(=O)(=O)c3ccccc32)cc1` yielded an RP-LC retention time of 859 s.

Regarding `O=C(Cn1nc2c(SC3CCCCC3)nccn2c1=O)Nc1ccc(Br)cc1`, the RP-LC retention time was 1120 s.

`O=C(c1ccc2nc(N3CCOCC3)sc2c1)N1CCN(c2ccccn2)CC1` yielded an RP-LC retention time of 563 s.

`Cc1ccc(S(=O)(=O)N2CCCC(Cn3cnc4cccnc43)C2)cc1C` (centres undefined) yielded an RP-LC retention time of 827 s.

For `CC(C)CCNC(=O)C1(CCO)CCN(c2ncccn2)C1` (centres undefined), the RP-LC retention time came out at 614 s.

On to `Cc1nc2c(ccc3nc(NC(=O)c4ccc5c(c4)OCCO5)sc32)s1`, for which the RP-LC retention time is 858 s.

With `CCOc1cccc(-c2noc(CCn3nc(-c4ccc(F)cc4)ccc3=O)n2)c1`, the RP-LC retention time amounted to 1060 s.

Regarding `COCCCNC(=O)Cn1nc(-n2c(C)ccc2C)c2c(C)cc(C)nc21`, the RP-LC retention time amounted to 874 s.

For `Cc1[nH]c(C(=O)N2CCCC(C(=O)NCc3ccccc3F)C2)c(C)c1C(=O)OC(C)C` (centres undefined), the RP-LC retention time came to 860 s.

With `O=C(Cn1c(=O)c2cc(-c3ccco3)nn2c2ncccc21)NCCc1ccccc1`, the RP-LC retention time came to 797 s.

The compound `O=c1c2sccc2n(Cc2nc(-c3ccc(F)cc3)no2)c(=O)n1-c1ccc(Cl)cc1` gave an RP-LC retention time of 1070 s.

Regarding `CCCCOc1ccc(NC(=O)c2cc(=O)c3cc(C)cc(C)c3o2)c2cccnc12`, the RP-LC retention time worked out at 838 s.

With `Cc1ccc(CNC(=O)C2CCCCC(=O)N2)o1` (centres undefined), the RP-LC retention time turned out to be 636 s.

In turn, `O=C(CSCc1nc2cccnc2n1C1CCCCC1)NCCc1ccco1` registered an RP-LC retention time of 883 s.
